Drawing on patent publication US20050009840A1 (SUGEN, INC., priority 2003, published 2005), this text covers Ki and inhibition for 58 compounds.

The first assay deals with T1, HGFR (Homo sapiens, UniProt P08581).
T1 construct: purchased Upstate 14-526
T1 sequence (P08581 974-1390 limits assumed): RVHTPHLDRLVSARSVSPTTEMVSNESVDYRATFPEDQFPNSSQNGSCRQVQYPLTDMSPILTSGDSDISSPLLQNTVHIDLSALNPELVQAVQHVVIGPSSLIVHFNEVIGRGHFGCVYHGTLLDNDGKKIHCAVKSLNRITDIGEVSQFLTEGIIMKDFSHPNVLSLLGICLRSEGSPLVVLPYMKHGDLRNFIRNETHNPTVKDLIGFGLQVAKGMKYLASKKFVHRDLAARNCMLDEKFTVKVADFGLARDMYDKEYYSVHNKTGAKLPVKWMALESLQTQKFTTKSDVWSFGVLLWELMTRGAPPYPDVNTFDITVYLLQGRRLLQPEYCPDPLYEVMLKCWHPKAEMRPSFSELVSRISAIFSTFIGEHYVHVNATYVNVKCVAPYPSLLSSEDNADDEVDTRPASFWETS
In words: HGFR continuous-coupled spectrophotometric assay. The conditions noted are these: Table 3, column 'Ki (μM) or I (%)': cells without % sign; read-out: Ki. Format: biochemical.
Broadly, the Ki is the dissociation constant of the complex between target and ligand, obtained from inhibition or displacement. Consider `CC(Oc1cc(-c2ccc(C(=O)N3CC4C(N)C4C3)cc2)cnc1N)c1c(Cl)ccc(F)c1Cl` (stereo not shown) [Example I-635, (6-Amino-3-aza-bicyclo[3.1.0]hex-3-yl)-(4-{6-amino-5-[1-(2,6-dichloro-3-fluoro-phenyl)-ethoxy]-pyridin-3-yl}-phenyl)-methanone], for which the Ki was 0.0554 µM. With `CC(Oc1cc(-c2ccc(C(=O)NC3CNC3)cc2)cnc1N)c1c(Cl)ccc(F)c1Cl` (stereo not shown) [Example I-609, 4-{6-Amino-5-[1-(2,6-dichloro-3-fluoro-phenyl)-ethoxy]-pyridin-3-yl}-N-azetidin-3-yl-benzamide], the Ki was found to be 0.045 µM.

Consider `CC(Oc1cc(-c2ccc(F)c(C#N)c2)cnc1N)c1c(Cl)ccc(F)c1Cl` (stereo not shown) [Example I-544, 5-{6-Amino-5-[1-(2,6-dichloro-3-fluoro-phenyl)-ethoxy]-pyridin-3-yl}-2-fluoro-benzonitrile], for which the inhibition constant Ki was 0.091 µM. For the compound `CC(Oc1cc(-c2ccc(C(=O)N3CCOCC3)cc2)cnc1N)c1c(Cl)ccc(F)c1Cl` (stereo not shown) [Example I-568, (4-{6-Amino-5-[1-(2,6-dichloro-3-fluoro-phenyl)-ethoxy]-pyridin-3-yl}-phenyl)-morpholin-4-yl-methanone], the Ki stood at 0.0525 µM. Turning to `CC(Oc1cc(-c2ccc(=O)n(CCN3CCCC3)c2)cnc1N)c1c(Cl)ccc(F)c1Cl` (stereo not shown) [Example I-637, 6′-Amino-5′-[1-(2,6-dichloro-3-fluoro-phenyl)-ethoxy]-1-(2-pyrrolidin-1-yl-ethyl)-1H-[3,3′]-bipyridinyl-6-one], the Ki was 0.692 µM.

Take `CC(Oc1cc(-c2ccc(C(=O)N3CCCC3)cc2)cnc1N)c1c(Cl)ccc(F)c1Cl` (stereo not shown) [Example I-547, (4-{6-Amino-5-[1-(2,6-dichloro-3-fluoro-phenyl)-ethoxy]-pyridin-3-yl}-phenyl)-pyrrolidin-1-yl-methanone]: the Ki worked out at 0.067 µM.

The assay is the same for the next values; noted with them: at 1 pM; Table 6, library procedure 41; read-out: % Inhibition (percent c-MET inhibition).
As a reminder, the inhibition is the relative decrease from the control value, in per cent. In the case of `Nc1ncc(C(=O)N2CCC(Cc3cnccn3)CC2)cc1OCc1c(Cl)cccc1Cl` [Example L-315], the inhibition at 1 pM was 72%. `COc1ccccc1CNC(=O)c1cnc(N)c(OCc2c(Cl)cccc2Cl)c1` [Example L-183]: the inhibition at 1 pM is 32%. Turning to `Nc1ncc(C(=O)N2CCC(O)C2)cc1OCc1c(Cl)cccc1Cl` [Example L-227], the inhibition at 1 pM amounted to 83%.

Regarding `CN(C)C(CNC(=O)c1cnc(N)c(OCc2c(Cl)cccc2Cl)c1)c1cccnc1` [Example L-295], the inhibition at 1 pM was 18%. On the same count and under the same terms, the figure for `CC(C)(CO)CNC(=O)c1cnc(N)c(OCc2c(Cl)cccc2Cl)c1` [Example L-210] is 39%; for `COc1ccc(C(NC(=O)c2cnc(N)c(OCc3c(Cl)cccc3Cl)c2)C2CC2)cc1` [Example L-208] it is 27%.

As for `Nc1ncc(C(=O)N[C@@H]2CCCC[C@H]2CO)cc1OCc1c(Cl)cccc1Cl` [Example L-229], the inhibition at 1 pM came to 24%. `Nc1ncc(C(=O)N2CCCC(F)(F)C2)cc1OCc1c(Cl)cccc1Cl` [Example L-309]: the inhibition at 1 pM came to 16%. `Nc1ncc(C(=O)NCc2ccc(F)cc2Cl)cc1OCc1c(Cl)cccc1Cl` [Example L-250]: the inhibition at 1 pM turned out to be 37%.

Consider `CC1CCC(=O)C(NC(=O)c2cnc(N)c(OCc3c(Cl)cccc3Cl)c2)C1` [Example L-260], for which the inhibition at 1 pM stood at 40%. On to `Nc1ncc(C(=O)N2CCN(CCCN3CCOCC3)CC2)cc1OCc1c(Cl)cccc1Cl` [Example L-261], for which the inhibition at 1 pM came to 40%. On the same count and under the same terms, the figure for `Nc1ncc(C(=O)NCc2c(F)cccc2F)cc1OCc1c(Cl)cccc1Cl` [Example L-279] is 32%; for `C[C@@H]1CCC[C@H](C)N1CCNC(=O)c1cnc(N)c(OCc2c(Cl)cccc2Cl)c1` [Example L-270] it is 2%.

Still in this assay, the particulars now being: at 1 pM; Table 7, library procedure 42; read-out: % Inhibition (percent c-MET inhibition).
In the case of `Nc1ncc(-c2ccc(C(=O)N3CCC(N4CCCC4)CC3)cc2)cc1OCc1ccc(C(=O)N2CCNC(c3ccccc3)C2)cc1` (stereo not shown), the inhibition at 1 pM came to 12%.

Take `Nc1ncc(-c2ccc(C(=O)N3CCC(N4CCCC4)CC3)cc2)cc1OCc1nc(NC2CC2)c2ccccc2n1`: the inhibition at 1 pM is 6%. For `CCCCc1nc(COc2cc(-c3ccc(C(=O)N4CCC(N5CCCC5)CC4)cc3)cnc2N)c[nH]1`, the inhibition at 1 pM was 16%. On to `Nc1ncc(-c2ccc(C(=O)N3CCC(N4CCCC4)CC3)cc2)cc1OCc1cc(F)ccc1F`, for which the inhibition at 1 pM turned out to be 24%. Same read-out and setting: the figure for `Cc1ccnc2nc(COc3cc(-c4ccc(C(=O)N5CCC(N6CCCC6)CC5)cc4)cnc3N)cn12` is 10%; for `Cc1cc(=O)n2nc(COc3cc(-c4ccc(C(=O)N5CCC(N6CCCC6)CC5)cc4)cnc3N)nc2[nH]1` it is 18%.

Consider `Cc1cc(C)n2nc(COc3cc(-c4ccc(C(=O)N5CCC(N6CCCC6)CC5)cc4)cnc3N)nc2n1`, for which the inhibition at 1 pM was determined as 18%. With `Nc1ncc(-c2ccc(C(=O)N3CCC(N4CCCC4)CC3)cc2)cc1OCc1cc(F)cc(F)c1`, the inhibition at 1 pM was found to be 14%. With `COc1cc(OC)nc(COc2cc(-c3ccc(C(=O)N4CCC(N5CCCC5)CC4)cc3)cnc2N)n1`, the inhibition at 1 pM was 20%. Consider `Nc1ncc(-c2ccc(C(=O)N3CCC(N4CCCC4)CC3)cc2)cc1OCc1cc(-c2ccccc2)no1`, for which the inhibition at 1 pM turned out to be 23%.

`Nc1ncc(-c2ccc(C(=O)N3CCC(N4CCCC4)CC3)cc2)cc1OCc1ccc(C(F)(F)F)c(F)c1`: the inhibition at 1 pM was determined as 25%. On to `Cc1cc(COc2cc(-c3ccc(C(=O)N4CCC(N5CCCC5)CC4)cc3)cnc2N)ccc1F`, for which the inhibition at 1 pM was 27%. As for `COC(=O)c1ccc(COc2cc(-c3ccc(C(=O)N4CCC(N5CCCC5)CC4)cc3)cnc2N)c(OC)c1`, the inhibition at 1 pM was found to be 15%.

For the compound `Nc1ncc(-c2ccc(C(=O)N3CCC(N4CCCC4)CC3)cc2)cc1OCc1cccc(Cl)c1Cl`, the inhibition at 1 pM was 40%.

Still in this assay, the particulars now being: at 50 nM; Table 5, library procedure 40; read-out: % inhibition (percent c-MET inhibition).
Regarding `CCN(C)C(=O)c1ccc(-c2cnc(N)c(OC(C)c3c(Cl)ccc(F)c3Cl)c2)cc1` [Example L-126], the inhibition at 0.05 µM amounted to 52%. Same read-out and setting: the figure for `COc1cc(CCNC(=O)c2ccc(-c3cnc(N)c(OC(C)c4c(Cl)ccc(F)c4Cl)c3)cc2)ccc1O` [Example L-92] is 64%. Consider `CC(Oc1cc(-c2ccc(C(=O)NCCCN3CCCCC3C)cc2)cnc1N)c1c(Cl)ccc(F)c1Cl` [Example L-8], for which the inhibition at 0.05 µM came to 72%. For the compound `C[C@H](Oc1cc(-c2ccc(C(=O)NC3C[C@@H]3c3ccccc3)cc2)cnc1N)c1c(Cl)ccc(F)c1Cl` (stereo partly drawn) [Example L-74], the inhibition at 0.05 µM stood at 65%. Consider `CC(Oc1cc(-c2ccc(C(=O)NCCCN3CCCC3=O)cc2)cnc1N)c1c(Cl)ccc(F)c1Cl` [Example L-60], for which the inhibition at 0.05 µM was 83%. Turning to `CC(Oc1cc(-c2ccc(C(=O)NCCCN3CCOCC3)cc2)cnc1N)c1c(Cl)ccc(F)c1Cl` [Example L-2], the inhibition at 0.05 µM was determined as 59%. In the case of `CC(Oc1cc(-c2ccc(C(=O)NCCC3CCOCC3)cc2)cnc1N)c1c(Cl)ccc(F)c1Cl` [Example L-162], the inhibition at 0.05 µM is 66%. The same measure, in the same setting: under `CC(Oc1cc(-c2ccc(C(=O)N3CCCCC3CN3CCCCC3)cc2)cnc1N)c1c(Cl)ccc(F)c1Cl` [Example L-73] stands 90%.

Regarding `CC(Oc1cc(-c2ccc(C(=O)NCCN3[C@H](C)CCC[C@@H]3C)cc2)cnc1N)c1c(Cl)ccc(F)c1Cl` (stereo partly drawn) [Example L-154], the inhibition at 0.05 µM came out at 77%. As to `CC(=O)N[C@@H]1CCN(C(=O)c2ccc(-c3cnc(N)c(OC(C)c4c(Cl)ccc(F)c4Cl)c3)cc2)C1` (stereo partly drawn) [Example L-107], the inhibition at 0.05 µM came to 87%. Same read-out and setting: the figure for `COC(=O)CN(C)C(=O)c1ccc(-c2cnc(N)c(OC(C)c3c(Cl)ccc(F)c3Cl)c2)cc1` [Example L-145] is 77%. With `CC(Oc1cc(-c2ccc(C(=O)N3CCN(C4CCN(C)CC4)CC3)cc2)cnc1N)c1c(Cl)ccc(F)c1Cl` [Example L-147], the inhibition at 0.05 µM was 96%.

Turning to `CC(Oc1cc(-c2ccc(C(=O)NCCCO)cc2)cnc1N)c1c(Cl)ccc(F)c1Cl` [Example L-5], the inhibition at 0.05 µM stood at 68%. Turning to `CC(C)OCCNC(=O)c1ccc(-c2cnc(N)c(OC(C)c3c(Cl)ccc(F)c3Cl)c2)cc1` [Example L-140], the inhibition at 0.05 µM was determined as 141%.

The assay is the same for the next values; noted with them: at 1 μM; Table 8, library procedure 43; read-out: % Inhibition (percent c-MET inhibition).
`CC1CN(C(=O)c2ccc(-c3cnc(N)c(OCc4ccc(-c5csnn5)cc4)c3)cc2)CC(C)N1` (stereo not shown): the inhibition at 1 µM is 17%.

Regarding `CC1CN(C(=O)c2ccc(-c3cnc(N)c(OCc4cccc(C(=O)NC5CCN(Cc6ccccc6)C5)c4)c3)cc2)CC(C)N1` (stereo not shown), the inhibition at 1 µM came out at 18%. `CC1CN(C(=O)c2ccc(-c3cnc(N)c(OCc4ccccc4OC(F)F)c3)cc2)CC(C)N1` (stereo not shown): the inhibition at 1 µM came to 24%. The same measure, in the same setting: the figure for `CC1CN(C(=O)c2ccc(-c3cnc(N)c(OCc4ccc(Br)cc4F)c3)cc2)CC(C)N1` (stereo not shown) is 29%. For the compound `CC1CN(C(=O)c2ccc(-c3cnc(N)c(OCc4c(F)ccc(F)c4Cl)c3)cc2)CC(C)N1` (stereo not shown), the inhibition at 1 µM is 51%. On the same count and under the same terms, the figure for `CC1CN(C(=O)c2ccc(-c3cnc(N)c(OCc4ccc5nc(C(F)(F)F)cc(OC(C)C)c5c4)c3)cc2)CC(C)N1` (stereo not shown) is 17%; for `CC1CN(C(=O)c2ccc(-c3cnc(N)c(OCc4ccc(C(=O)N5CCN(Cc6ccccc6)CC5)cc4)c3)cc2)CC(C)N1` (stereo not shown) it is 15%.

As for `Cc1ccc(COc2cc(-c3ccc(C(=O)N4CC(C)NC(C)C4)cc3)cnc2N)cc1Cl` (stereo not shown), the inhibition at 1 µM amounted to 27%.

The assay is the same for the next values; noted with them: cells prefixed Ki; read-out: Met Ki.
Consider `CC(Oc1cc(-c2cnn(CCN3CCOCC3)c2)cnc1N)c1c(Cl)ccc(F)c1Cl` (stereo not shown) [Example I-467, 3-[1-(2,6-Dichloro-3-fluoro-phenyl)-ethoxy]-5-[1-(2-morpholin-4-yl-ethyl)-1H-pyrazol-4-yl]-pyridin-2-ylamine], for which the inhibition constant Ki was found to be 0.083 µM. Still for that read-out and setting: the figure for `CC(Oc1cc(-c2ccc(OCC(=O)O)cc2)cnc1N)c1c(Cl)ccc(F)c1Cl` (stereo not shown) [Example I-476, (4-{6-Amino-5-[1-(2,6-dichloro-3-fluoro-phenyl)-ethoxy]-pyridin-3-yl}-phenoxy)-acetic acid] is 0.2 µM.

The assay is the same for the next values; noted with them: read-out: % Inhibition (percent c-MET inhibition).
Regarding `Nc1ncc(C(=O)N2CCC(=O)CC2)cc1OCc1c(Cl)cccc1Cl` [Example L-232], the inhibition at 1 pM came to 44%.
